Data on 13 compounds can be found in patent US20250122219A1 (priority 2023, published 2025).

In one data set the test system is HIV-1 (IIIB). Briefly: Antiviral assay in MT-4 cells. The data set is classed as cell-based. The conditions noted are these: Human immunodeficiency virus 1, MT4, 120 h; HIV-1 IIIB in MT-4 cells, 5 days incubation, Cell Titer Glo; read-out: MT4 EC50. On the procedure:
Compounds were tested in a high-throughput 384-well assay format for their ability to inhibit the replication of HIV-1 (IIIB) in MT-4 cells. Compounds were serially diluted (1.3) in DMSO on 384-well polypropylene plates and further diluted 200-fold into complete RPMI media (10% FBS, 1% P/S) using the Biotek Micro Flow and Labcyte ECHO acoustic dispenser. Each plate contained up to 8 test compounds, with negative (No Drug Control) and 5 μM AZT positive controls. MT-4 cells were pre-infected with 10 μL of either RPMI (mock-infected) or a fresh 1:250 dilution of HIV-1 IIIB concentrated virus stock. Infected and uninfected MT-4 cells were further diluted in complete RPMI media and added to each plate using a Micro Flow dispenser. After 5 days incubation in a humidified and temperature controlled incubator (37° C.), Cell Titer Glo (Promega) was added to the assay plates and chemiluminescence read using an Envision plate-reader.

Data set [1] in a line: Cytotoxicity assay in MT-4 cells. The data set is classed as cell-based. The conditions noted are these: human; uninfected MT-4 cells, 5 days incubation, Cell Titer Glo; read-out: MT4 CC50. An outline of the steps:
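Viability read by Cell Titer Glo luminescence after 5 days at 37 °C. MT-4 cells, not infected, in complete RPMI (10% FBS), received compound dilution series. Base cytotoxicity set with […] puromycin.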

For the compound `CCCCCCCCC(=O)Oc1c2n(cc(C(=O)NCc3ccc(F)cc3F)c1=O)[C@@H]1CN(C2=O)[C@@H](C)CC[C@]12CC(C)=NO2` [Example 43, (3′S,5S,7′R)-10′-((2,4-difluorobenzyl)carbamoyl)-3,3′-dimethyl-1′,11′-dioxo-1′,4′,5′,11′-tetrahydro-3′H,4H,7′H-spiro[isoxazole-5,6′-[2,7]methanopyrido[1,2-a][1,4]diazonin]-12′-yl nonanoate], the EC50 in the data set on HIV-1 (IIIB) was found to be 0.00197 µM. Also, in data set [1], the CC50 at 5 days turned out to be 21.1 µM.
Turning to `CCCCCCCCCC(=O)Oc1c2n(cc(C(=O)NCc3ccc(F)cc3F)c1=O)[C@@H]1CN(C2=O)[C@@H](C)CC[C@]12CC(OC)=NO2` [Example 44, (3′S,5S,7′R)-10′-((2,4-difluorobenzyl)carbamoyl)-3-methoxy-3′-methyl-1′,11′-dioxo-1′,4′,5′,11′-tetrahydro-3′H,4H,7′H-spiro[isoxazole-5,6′-[2,7]methanopyrido[1,2-a][1,4]diazonin]-12′-yl decanoate], in the data set with HIV-1 (IIIB), the EC50 was 0.000477 µM. In addition, the half-maximal cytotoxic concentration (CC50) at 5 days in data set [1] was 24.5 µM.
With `CCCCCCCCCC(=O)Oc1c2n(cc(C(=O)NCc3ccc(F)cc3F)c1=O)[C@@H]1CN(C2=O)[C@@H](C)CC[C@]12CC(C)=NO2` [Example 45, (3′S,5S,7′R)-10′-((2,4-difluorobenzyl)carbamoyl)-3,3′-dimethyl-1′,11′-dioxo-1′,4′,5′,11′-tetrahydro-3′H,4H,7′H-spiro[isoxazole-5,6′-[2,7]methanopyrido[1,2-a][1,4]diazonin]-12′-yl decanoate], the EC50 in the data set on HIV-1 (IIIB) amounted to 0.000373 µM. Further, the CC50 at 5 days in data set [1] was 22.2 µM.
The corresponding values for `CCCCCCCCCCCC(=O)Oc1c2n(cc(C(=O)NCc3ccc(F)cc3F)c1=O)[C@@H]1CN(C2=O)[C@@H](C)CC[C@]12CC(OC)=NO2` [Example 46, (3′S,5S,7′R)-10′-((2,4-difluorobenzyl)carbamoyl)-3-methoxy-3′-methyl-1′,11′-dioxo-1′,4′,5′,11′-tetrahydro-3′H,4H,7′H-spiro[isoxazole-5,6′-[2,7]methanopyrido[1,2-a][1,4]diazonin]-12′-yl dodecanoate] are 0.00206 µM and 36.2 µM.
`CCCCCCCCCCCC(=O)Oc1c2n(cc(C(=O)NCc3ccc(F)cc3F)c1=O)[C@@H]1CN(C2=O)[C@@H](C)CC[C@]12CC(C)=NO2` [Example 47, (3′S,5S,7′R)-10′-((2,4-difluorobenzyl)carbamoyl)-3,3′-dimethyl-1′,11′-dioxo-1′,4′,5′,11′-tetrahydro-3′H,4H,7′H-spiro[isoxazole-5,6′-[2,7]methanopyrido[1,2-a][1,4]diazonin]-12′-yl dodecanoate]: the EC50 in the data set with HIV-1 (IIIB) turned out to be 0.00201 µM. The CC50 at 5 days in data set [1] was 22.6 µM.
The corresponding values for `COC1=NO[C@@]2(CC[C@H](C)N3C[C@H]2n2cc(C(=O)NCc4ccc(F)cc4F)c(=O)c(OC(=O)C4CCCC4)c2C3=O)C1` [Example 52, (3′S,5S,7′R)-10′-((2,4-difluorobenzyl)carbamoyl)-3-methoxy-3′-methyl-1′,11′-dioxo-1′,4′,5′,11′-tetrahydro-3′H,4H,7′H-spiro[isoxazole-5,6′-[2,7]methanopyrido[1,2-a][1,4]diazonin]-12′-yl cyclopentanecarboxylate] are 0.000604 µM and 24.7 µM.
For `CC1=NO[C@@]2(CC[C@H](C)N3C[C@H]2n2cc(C(=O)NCc4ccc(F)cc4F)c(=O)c(OC(=O)C4CCCC4)c2C3=O)C1` [Example 53, (3′S,5S,7′R)-10′-((2,4-difluorobenzyl)carbamoyl)-3,3′-dimethyl-1′,11′-dioxo-1′,4′,5′,11′-tetrahydro-3′H,4H,7′H-spiro[isoxazole-5,6′-[2,7]methanopyrido[1,2-a][1,4]diazonin]-12′-yl cyclopentanecarboxylate], in that order: 0.00144 µM and 24.4 µM.
The corresponding values for `COC1=NO[C@@]2(CC[C@H](C)N3C[C@H]2n2cc(C(=O)NCc4ccc(F)cc4F)c(=O)c(OC(=O)CC(C)C)c2C3=O)C1` [Example 54, (3′S,5S,7′R)-10′-((2,4-difluorobenzyl)carbamoyl)-3-methoxy-3′-methyl-1′,11′-dioxo-1′,4′,5′,11′-tetrahydro-3′H,4H,7′H-spiro[isoxazole-5,6′-[2,7]methanopyrido[1,2-a][1,4]diazonin]-12′-yl 3-methylbutanoate] are 0.000504 µM and 19.4 µM.
Regarding `CC1=NO[C@@]2(CC[C@H](C)N3C[C@H]2n2cc(C(=O)NCc4ccc(F)cc4F)c(=O)c(OC(=O)CC(C)C)c2C3=O)C1` [Example 55, (3′S,5S,7′R)-10′-((2,4-difluorobenzyl)carbamoyl)-3,3′-dimethyl-1′,11′-dioxo-1′,4′,5′,11′-tetrahydro-3′H,4H,7′H-spiro[isoxazole-5,6′-[2,7]methanopyrido[1,2-a][1,4]diazonin]-12′-yl 3-methylbutanoate], in the data set with HIV-1 (IIIB), the concentration for a half-maximal effect (EC50) came out at 0.000313 µM. Further, the CC50 at 5 days in data set [1] was determined as 16.4 µM.
The corresponding values for `COC1=NO[C@@]2(CC[C@H](C)N3C[C@H]2n2cc(C(=O)NCc4ccc(F)cc4F)c(=O)c(OC(=O)CCC(C)C)c2C3=O)C1` [Example 56, (3′S,5S,7′R)-10′-((2,4-difluorobenzyl)carbamoyl)-3-methoxy-3′-methyl-1′,11′-dioxo-1′,4′,5′,11′-tetrahydro-3′H,4H,7′H-spiro[isoxazole-5,6′-[2,7]methanopyrido[1,2-a][1,4]diazonin]-12′-yl 4-methylpentanoate] are 0.00124 µM and 34.7 µM.
As to `CC1=NO[C@@]2(CC[C@H](C)N3C[C@H]2n2cc(C(=O)NCc4ccc(F)cc4F)c(=O)c(OC(=O)CCC(C)C)c2C3=O)C1` [Example 57, (3′S,5S,7′R)-10′-((2,4-difluorobenzyl)carbamoyl)-3,3′-dimethyl-1′,11′-dioxo-1′,4′,5′,11′-tetrahydro-3′H,4H,7′H-spiro[isoxazole-5,6′-[2,7]methanopyrido[1,2-a][1,4]diazonin]-12′-yl 4-methylpentanoate], in the data set on HIV-1 (IIIB), the EC50 is 0.00154 µM. Also, the CC50 at 5 days in data set [1] was determined as 23.1 µM.
For `COC1=NO[C@@]2(CC[C@H](C)N3C[C@H]2n2cc(C(=O)NCc4ccc(F)cc4F)c(=O)c(OC(=O)CCC4CCCC4)c2C3=O)C1` [Example 58, (3′S,5S,7′R)-10′-((2,4-difluorobenzyl)carbamoyl)-3-methoxy-3′-methyl-1′,11′-dioxo-1′,4′,5′,11′-tetrahydro-3′H,4H,7′H-spiro[isoxazole-5,6′-[2,7]methanopyrido[1,2-a][1,4]diazonin]-12′-yl 3-cyclopentylpropanoate], in that order: 0.000284 µM and 23.9 µM.
For `CC1=NO[C@@]2(CC[C@H](C)N3C[C@H]2n2cc(C(=O)NCc4ccc(F)cc4F)c(=O)c(OC(=O)CCC4CCCC4)c2C3=O)C1` [Example 59, (3′S,5S,7′R)-10′-((2,4-difluorobenzyl)carbamoyl)-3,3′-dimethyl-1′,11′-dioxo-1′,4′,5′,11′-tetrahydro-3′H,4H,7′H-spiro[isoxazole-5,6′-[2,7]methanopyrido[1,2-a][1,4]diazonin]-12′-yl 3-cyclopentylpropanoate], in that order: 0.000459 µM and 15.4 µM.
